molecular target: Mitogen-activated protein kinase 14 (Homo sapiens, UniProt Q16539); experiment: Homogeneous Time-Resolved Fluorescence (HTRF) Enzyme Assay; conditions: pH 7; 22 °C
Protocol: The HTRF signal is calculated as a ratio of the A-counts to B-counts. The signal produced is proportional to the amount of JNK3 or p38 kinase activity present during the kinase reaction phase.

Mitogen-activated protein kinase 14, sequence (Q16539 whole entry): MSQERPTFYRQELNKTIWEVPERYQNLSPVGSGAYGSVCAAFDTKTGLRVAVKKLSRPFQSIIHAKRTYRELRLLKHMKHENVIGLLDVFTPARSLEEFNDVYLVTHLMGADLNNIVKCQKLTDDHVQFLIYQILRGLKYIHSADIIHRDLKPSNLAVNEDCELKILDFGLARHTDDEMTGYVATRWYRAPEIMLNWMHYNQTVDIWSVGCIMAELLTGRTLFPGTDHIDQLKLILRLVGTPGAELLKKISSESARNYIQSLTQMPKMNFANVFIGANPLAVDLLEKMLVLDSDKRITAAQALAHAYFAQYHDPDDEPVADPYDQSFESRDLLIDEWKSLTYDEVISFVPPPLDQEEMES

| Structure (SMILES) | IC50 |
| --- | --- |
| CCCn1c(C2CCNCC2)nc(-c2ccc(Cl)c(Cl)c2)c1-c1ccnc(NC2CCCCC2)n1 | 4 nM |
| Oc1ccc(-c2cnc3ccc4ccncc4c3c2)cc1 [4-(2,7-phenanthrolin-9-yl)phenol] | > 40000 nM |
| CCCn1c(C2CCN(C)CC2)nc(-c2ccc(Cl)c(Cl)c2)c1-c1ccnc(NC2CC2)n1 | 0.078 nM |
